Test results from patent US4268630A, “Microbiological production of ketones from C3 -C6 alkanes” (priority 1979, dated 1981).

How the values were obtained:
[1] = test system: Pseudomonas sp. ATCC 21439; experiment: Oxidation of sec-alcohols to ketones by resting cell suspension; format: cell-based; settings: methanol-grown, obligate
Description: (§1) The pH of the nutrient medium was adjusted to 7.0 by the addition of acid or base and 50 ml. samples of the nutrient medium were charged into a plurality of 300 ml. shaker flasks. The shaker flasks were inoculated with an inoculating loop of cells from an agar plate containing homogeneous colonies of the microorganisms on the plate (the purity of the isolates was confirmed by microscopic examination). The isolates had been maintained on methanol (0.4% V/V) agar plates or on agar plates under an atmosphere of methane and air having a 1:1 V/V gas ratio which had been transferred every two weeks. For growth on methanol, the medium was supplemented with 0.4% methanol. For growth on methane, the gaseous phase of the inoculated flasks was replaced with a gas mixture comprised on methane and air having a ratio of 1:1 on a V/V basis. The inoculated flasks were sealed air-tight and were incubated on a rotary shaker of orbital radius 2.5 cm. at 250 rpm and at 30° C. for two days until turbidity in the medium had developed. The cells were harvested by centrifugation at 10,000×g. at 4° C. for 30 minutes. The cell pellet was washed twice with a 0.05 M phosphate buffer at a pH of 7.0 (containing 0.02 M MgCl2). The washed cells were then suspended in a 0.05 M phosphate buffer at pH 7.0.
(§2) A 0.5 ml. sample of each washed cell suspension (2 mg. cells) was put into 10 ml. vials at 4° C. which were sealed with a rubber cap. The gaseous phase of the vials was removed with vacuum and then was replaced with a gas mixture of the substrate reactant (i.e., alkane or secondary alcohol) and oxygen at a 1:1 V/V ratio. (In the case of a liquid substrate, i.e., secondary alcohol, 10 μl of the substrate was put in the 10 ml. vials). […] Samples of product (1-3 μl) were withdrawn periodically with a microsyringe and the products were analyzed by gas chromatography (ionization flame detector column).
(§3) The procedure in Example 1 was repeated except that a plurality of methanol-utilizing methylotrophic microorganisms were each aerobically grown in a methanol-containing nutrient medium instead of a methane-containing medium. The nutrients in the medium were the same as indicated in Example 1 except that 0.4% V/V methanol was used as the alcohol dehydrogenase inducer and as the major carbon and energy source for growth. The cells were harvested and washed as described in Example 1. The resting microbial cells of the induced methanol-grown methanol-utilizing methylotrophic microorganisms were then contacted with C3 -C6 secondary alcohols in a buffered solution by the procedure of Example 1.

[2] = test system: Pseudomonas MS ATCC 25262; experiment: as above; format: cell-based; settings: methanol-grown, facultative
Description: as §1, §2, §3

[3] = test system: cell-free soluble extract of Pseudomonas sp. CRL 75 (ATCC 21,439); experiment: Oxidation of secondary alcohols by cell-free soluble extract (NAD added); format: biochemical; settings: soluble crude extract, grown on methanol
Description: (§4) To prepare the cell-free secondary alcohol dehydrogenase (SADH) system, the washed cells were disrupted with a Wave Energy Ultrasonic Oscillator, Model W201 (Wave Energy System, Inc., Newtown, Pa.) and centrifuged at 20,000× g. for 30 minutes. […] The enzyme activity was measured with a fluorescence spectrophotometer (Perkin Elmer, Model MPF 44A) by following the formation of reduced NAD (EX 340 nm, Em 460 nm). The formation of reduced NAD was also followed with an absorption spectrophotometer at 340 nm. The assay system (3 ml.) contained: potassium phosphate buffer pH 7.0; 150 μmol.; NAD 1 μmol.; a given amount of enzyme preparation; and secondary alcohol 10 μmol. The reaction was started by the addition of substrate. One unit of enzyme activity represents the reduction of one μmole NAD per minute. Protein concentrations were determined by the Lowry method (J. Biol. Chem., 193: 255-275 (1951)).
(§5) The experimental procedure for the tests reported in Table VIII were as follows: 1 mg protein of crude extract was added into a 0.5 ml. 0.05 M phosphate buffer (pH 7.0) in a 10-ml. vial. […] The reaction mixture was incubated at 30° C. on a water bath. A 3 μl sample was removed with a syringe at 15 min. of incubation and was assayed with g.l.c. Catalytic activity was also assayed by fluorescence spectrophotometry.

[4] = test system: cell-free soluble extract of Methylococcus capsulatus CRL M1 (NRRL B-11,219); experiment: as above; format: biochemical; settings: soluble crude extract, grown on methanol
Description: as §4, §5

[5] = test system: cell-free soluble extract of Methylobacterium organophilum CRL 26 (NRRL B-11,222); experiment: as above; format: biochemical; settings: soluble crude extract, grown on methanol
Description: as §4, §5

[6] = test system: cell-free soluble extract of Methylosinus trichosporium OB3b (NRRL B-11,196); experiment: as above; format: biochemical; settings: soluble crude extract, grown on methanol
Description: as §4, §5

[7] = test system: Candida utilis ATCC 26387; experiment: Oxidation of sec-alcohols to ketones by cell suspensions of yeasts; format: cell-based

Compound	Conversion Rates, sec-alcohol to methyl ketone [1] [μmoles/hr/mg protein]	Conversion Rates, sec-alcohol to methyl ketone [2] [μmoles/hr/mg protein]	Oxidation Rate, sec-alcohol to methyl ketone [3] [nmole/min/mg protein]	Oxidation Rate, sec-alcohol to methyl ketone [4] [nmole/min/mg protein]	Oxidation Rate, sec-alcohol to methyl ketone [5] [nmole/min/mg protein]	Oxidation Rate, sec-alcohol to methyl ketone [6] [nmole/min/mg protein]	Conversion Rate, sec-alcohol to ketone ([7]; growth substrate Ethanol)	Conversion Rate, sec-alcohol to ketone ([7]; growth substrate Methanol)	Conversion Rate, sec-alcohol to ketone ([7]; growth substrate Methylamine)	Conversion Rate, sec-alcohol to ketone ([7]; growth substrate Methylformate)	Conversion Rate, sec-alcohol to ketone ([7]; growth substrate Propylamine)
CCCCC(C)O (centres unmarked) [2-Hexanol, 2-hexanol]	0.03	0.80	0	0	0	0	0.72 μmoles/hr/mg of protein	0.8 μmoles/hr/mg of protein	0.61 μmoles/hr/mg of protein	0.75 μmoles/hr/mg of protein	0.52 μmoles/hr/mg of protein
CCCC(C)O (centres unmarked) [2-Pentanol, 2-pentanol]	0.05	2.1	1.2	0.1	0.1	0.1	1.0 μmoles/hr/mg of protein	1.5 μmoles/hr/mg of protein	1.2 μmoles/hr/mg of protein	1.3 μmoles/hr/mg of protein	0.9 μmoles/hr/mg of protein
CC(C)O [2-Propanol, 2-propanol]	7.4	0.80	21.2	1.7	2.1	2.0	5.2 μmoles/hr/mg of protein	6.2 μmoles/hr/mg of protein	5.0 μmoles/hr/mg of protein	5.6 μmoles/hr/mg of protein	4.2 μmoles/hr/mg of protein
CCC(C)O (centres unmarked) [2-Butanol, 2-butanol]	4.7	3.5	25.0	2.0	2.5	2.4	5.2 μmoles/hr/mg of protein	6.8 μmoles/hr/mg of protein	5.0 μmoles/hr/mg of protein	6.2 μmoles/hr/mg of protein	4.2 μmoles/hr/mg of protein
